This is an account of results in US11208411B2, “Compositions and methods for treating parasitic diseases” (THE REGENTS OF THE UNIVERSITY OF CALIFORNIA, priority 2016, dated 2021).

A short description of series [1]: Stability in rat liver microsomes. Format: in vitro ADME. The note with it: 1 mM NADPH, read-out: Microsome Half-Life. Background: Microsomes from liver hold many membrane-bound enzymes, among them those of drug oxidation.
Series [2] concerns the target Src (Homo sapiens (Human), UniProt P12931). Put plainly: Src kinase inhibition. Also on record: Src % Inhibition: concentration or dose not given beside the values. Format: biochemical.
In series [3] the target is TgCDPK1 (Toxoplasma gondii, UniProt Q9BJF5). Put plainly: TgCDPK1 kinase assay, syntide-2 peptide-based ELISA. Format: biochemical.
Sequence of TgCDPK1 (Q9BJF5 1-507): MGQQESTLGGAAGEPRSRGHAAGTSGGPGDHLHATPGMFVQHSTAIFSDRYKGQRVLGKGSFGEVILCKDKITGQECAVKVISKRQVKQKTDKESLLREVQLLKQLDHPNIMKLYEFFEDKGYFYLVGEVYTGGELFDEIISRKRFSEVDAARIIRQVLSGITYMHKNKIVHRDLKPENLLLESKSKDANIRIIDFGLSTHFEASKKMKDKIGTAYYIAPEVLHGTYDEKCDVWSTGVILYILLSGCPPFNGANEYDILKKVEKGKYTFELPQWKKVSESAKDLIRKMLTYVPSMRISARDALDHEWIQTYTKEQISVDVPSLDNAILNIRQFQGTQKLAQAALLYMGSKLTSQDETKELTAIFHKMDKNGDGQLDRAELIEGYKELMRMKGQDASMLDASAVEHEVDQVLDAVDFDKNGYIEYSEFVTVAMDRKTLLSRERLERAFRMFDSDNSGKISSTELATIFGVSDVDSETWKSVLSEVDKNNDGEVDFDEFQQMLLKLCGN
The subject of series [4] is T. gondii type I RH strain, 2F clone. The series can be described thus: Inhibition of parasite growth in vitro in HFF monolayers (beta-Gal readout). It is filed as cell-based.
Series [5] can be described thus: In vivo pharmacokinetics. As to conditions: iv, 3 mg/kg.
[6] abbreviates: Toxoplasma gondii, 72 h; read-out: Parasite Growth EC50.

Each structure is given as a SMILES string. Like-named read-outs stand apart in the source and are kept apart here. Some results are limits rather than exact numbers.

Sequence of Src (P12931 whole entry, looked up): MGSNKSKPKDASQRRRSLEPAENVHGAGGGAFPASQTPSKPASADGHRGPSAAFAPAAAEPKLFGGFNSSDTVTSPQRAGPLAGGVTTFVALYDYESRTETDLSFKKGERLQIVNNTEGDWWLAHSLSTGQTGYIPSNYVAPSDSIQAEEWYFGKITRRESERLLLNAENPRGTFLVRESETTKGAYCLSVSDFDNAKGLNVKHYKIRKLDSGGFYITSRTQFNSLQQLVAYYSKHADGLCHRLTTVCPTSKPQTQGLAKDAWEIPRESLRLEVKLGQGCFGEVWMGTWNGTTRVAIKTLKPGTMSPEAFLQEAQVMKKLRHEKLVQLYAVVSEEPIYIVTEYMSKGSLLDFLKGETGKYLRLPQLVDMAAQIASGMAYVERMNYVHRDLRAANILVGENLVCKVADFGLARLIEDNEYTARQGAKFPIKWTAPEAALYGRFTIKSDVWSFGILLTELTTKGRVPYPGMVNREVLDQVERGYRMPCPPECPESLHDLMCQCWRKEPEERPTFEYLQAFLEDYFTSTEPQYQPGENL

Broadly, the half-life is the time needed for the level to fall by half in the phase considered. In general, IC50 refers to the point on the concentration scale where inhibition reaches its midpoint. As usually defined, the EC50 is the concentration giving half of the maximal effect. Regarding `CC(C)(C)n1nc(Cc2c[nH]c3ccccc23)c2c(N)ncnc21` [LJQ-138, 3-((1H-indol-3-yl)methyl)-1-(tert-butyl)-1H-pyrazolo[3,4-d]pyrimidin-4-amine], the half-life in series [1] is 2 min. Further, in series [2], the IC50 was > 10000 nM and the “Src % Inhibition” value is reported as 74.94%. The same compound displayed an IC50 in series [3] of 12.3 nM. Further, in series [4] (setting [6]), the EC50 is 177 nM. In the case of `CC(C)(C)n1nc(Oc2cccc(C(F)(F)F)c2)c2c(N)ncnc21` [GXJ178, 1-(tert-butyl)-3-(3-(trifluoromethyl)phenoxy)-1H-pyrazolo[3,4-d]pyrimidin-4-amine], the “Src % Inhibition” value in series [2] is 79.53%. Turning to `Nc1ncnc2c1c(Nc1cccc(Cl)c1)nn2CC1CCNCC1` [GXJ276, N^3-(3-chlorophenyl)-1-(piperidin-4-ylmethyl)-1H-pyrazolo[3,4-d]pyrimidine-3,4-diamine], the “Src % Inhibition” value in series [2] worked out at 24.50%.

On to `Nc1ncnc2c1c(Sc1cccc(Cl)c1)nn2CC1CCNCC1(F)F` (stereo not shown) [FUR 7-76], for which the “Src % Inhibition” value in series [2] was determined as 76.47%. The same measure, in the same setting: for `CC(C)(C)n1nc(Cc2cccc(Cl)c2)c2c(N)ncnc21` [Compound 3CIB-PP1, 1-(tert-butyl)-3-(3-chlorobenzyl)-1H-pyrazolo[3,4-d]pyrimidin-4-amine, reference compound] the value was 18.48%. On the same count and under the same terms, for `CC(C)(C)n1nc(Sc2cccc(Cl)c2)c2c(N)ncnc21` [GXJ186, 1-(tert-butyl)-3-((3-chlorophenyl)thio)-1H-pyrazolo[3,4-d]pyrimidin-4-amine] the value was 72.84%; for `Nc1ncnc2c1c(Cc1cccc(Cl)c1)nn2CC1CCNCC1` [FUR6-157, 3-(3-chlorobenzyl)-1-(piperidin-4-ylmethyl)-1H-pyrazolo[3,4-d]pyrimidin-4-amine], 87.11%. Regarding `Nc1ncnc2c1c(Oc1cccc(Cl)c1)nn2CC1CNC1` [FUR6-12, 1-(azetidin-3-ylmethyl)-3-(3-chlorophenoxy)-1H-pyrazolo[3,4-d]pyrimidin-4-amine], the “Src % Inhibition” value in series [2] is listed as 91.81%. With `Nc1ncnc2c1c(Oc1cccc(Cl)c1)nn2CC1(C(F)(F)F)CC1` [FUR7-2, 3-(3-chlorophenoxy)-1-((1-(trifluoromethyl)cyclopropyl)methyl)-1H-pyrazolo[3,4-d]pyrimidin-4-amine], the “Src % Inhibition” value in series [2] is 91.63%. Consider `CC(C)(C)n1nc(Cc2csc3ccccc23)c2c(N)ncnc21` [CZ43, 3-(benzo[b]thiophen-3-ylmethyl)-1-(tert-butyl)-1H-pyrazolo[3,4-d]pyrimidin-4-amine], for which the half-life in series [1] is 2.5 min. For the same compound, in series [2], the IC50 came out at 14 nM and the “Src % Inhibition” value came out at 28.21%. The same compound had an IC50 in series [3] of 7.45 nM. Further, the EC50 in series [4] (setting [6]) came to 135 nM. Consider `Nc1ncnc2c1c(Sc1cccc(Cl)c1)cn2CC1CCNCC1` [FUR 6-139, 5-((3-chlorophenyl)thio)-7-(piperidin-4-ylmethyl)-7H-pyrrolo[2,3-d]pyrimidin-4-amine], for which, in series [2], the “Src % Inhibition” value stood at 97.49%. Consider `CC(C)(C)n1nc(Sc2c[nH]c3ccccc23)c2c(N)ncnc21` [FUR6-159, 3-((1H-indol-3-yl)thio)-1-(tert-butyl)-1H-pyrazolo[3,4-d]pyrimidin-4-amine], for which, in series [1], the half-life is 2.6 min. Also, in series [2], the IC50 is > 10000 nM and the “Src % Inhibition” value amounted to 97.66%. Besides, half-maximal inhibition in series [3] (IC50) was put at 202 nM. For the same compound, in series [4] (setting [6]), the EC50 was > 10000 nM. As to `Nc1ncnc2c1c(Oc1cccc(Cl)c1)nn2CC1CCOCC1` [FUR7-89, 3-(3-chlorophenoxy)-1-((tetrahydro-2H-pyran-4-yl)methyl)-1H-pyrazolo[3,4-d]pyrimidin-4-amine], the “Src % Inhibition” value in series [2] is 77.33%. Regarding `Cc1cccc(Sc2nn(CC3CCNCC3)c3ncnc(N)c23)c1` [FUR7-77, 1-(piperidin-4-ylmethyl)-3-(m-tolylthio)-1H-pyrazolo[3,4-d]pyrimidin-4-amine], the “Src % Inhibition” value in series [2] is 80.21%. With `Cc1cccc(Oc2nn(C(C)(C)C)c3ncnc(N)c23)c1` [GXJ176, 1-(tert-butyl)-3-(m-tolyloxy)-1H-pyrazolo[3,4-d]pyrimidin-4-amine], the “Src % Inhibition” value in series [2] was determined as 84.24%.

Take `Nc1ncnc2c1c(Sc1cccc(Cl)c1)nn2CC1CCNCC1` [FUR 5-56]: the “Src % Inhibition” value in series [2] was found to be 102.82%.

On to `Nc1ncnc2c1c(Oc1cccc(Cl)c1)nn2Cc1ccncc1` [FUR6-6, 3-(3-chlorophenoxy)-1-(pyridin-4-ylmethyl)-1H-pyrazolo[3,4-d]pyrimidin-4-amine], for which, in series [2], the “Src % Inhibition” value is recorded as 93.91%. Same read-out and setting: the result for `CC(C)(C)n1nc(Oc2cccc(Br)c2)c2c(N)ncnc21` [GXJ177, 3-(3-bromophenoxy)-1-(tert-butyl)-1H-pyrazolo[3,4-d]pyrimidin-4-amine] reads 73.35%.

Take `Nc1ncnc2c1c(Sc1c[nH]c3ccccc13)nn2CC1CCNCC1` [FUR 5-57, 3-((1H-indol-3-yl)thio)-1-(piperidin-4-ylmethyl)-1H-pyrazolo[3,4-d]pyrimidin-4-amine]: the half-life in series [1] turned out to be 12 min. As to `CC(C)(C)n1nc(Oc2cc(F)cc(F)c2)c2c(N)ncnc21` [GXJ229, 1-(tert-butyl)-3-(3,5-difluorophenoxy)-1H-pyrazolo[3,4-d]pyrimidin-4-amine], the “Src % Inhibition” value in series [2] is 87.48%. On the same count and under the same terms, the result for `Nc1ncnc2c1c(Oc1cccc(Cl)c1)nn2CC1CCNC(=O)C1` (stereo not shown) [FUR7-36, 4-((4-amino-3-(3-chlorophenoxy)-1H-pyrazolo[3,4-d]pyrimidin-1-yl)methyl)piperidin-2-one] reads 96.13%; that for `Nc1ncnc2c1c(Oc1cccc(Cl)c1)nn2CC1CCNCC1(F)F` (stereo not shown) [FUR7-27, 3-(3-chlorophenoxy)-1-((3,3-difluoropiperidin-4-yl)methyl)-1H-pyrazolo[3,4-d]pyrimidin-4-amine], 87.87%. On the same count and under the same terms, for `CN1CCC(Cn2nc(Oc3cccc(Cl)c3)c3c(N)ncnc32)CC1` [FUR7-30, 3-(3-chlorophenoxy)-1-((1-methylpiperidin-4-yl)methyl)-1H-pyrazolo[3,4-d]pyrimidin-4-amine] the value was 96.94%. Take `CC(C)(C)n1nc(Cc2coc3ccccc23)c2c(N)ncnc21` [LJQ-145, 3-(benzofuran-3-ylmethyl)-1-(tert-butyl)-1H-pyrazolo[3,4-d]pyrimidin-4-amine]: the half-life in series [1] stood at 1.7 min. In addition, the “Src % Inhibition” value in series [2] is recorded as 36.04%. Besides, the IC50 in series [3] turned out to be 23.7 nM. Also, the EC50 in series [4] (setting [6]) was found to be 2030 nM.

Take `COc1cccc(Oc2nn(C(C)(C)C)c3ncnc(N)c23)c1` [GXJ230, 1-(tert-butyl)-3-(3-methoxyphenoxy)-1H-pyrazolo[3,4-d]pyrimidin-4-amine]: in series [2], the “Src % Inhibition” value was found to be 77.53%. Turning to `Nc1ncnc2c1c(Oc1cccc(Cl)c1)nn2CC1CCNCC1` [GXJ237, 3-(3-chlorophenoxy)-1-(piperidin-4-ylmethyl)-1H-pyrazolo[3,4-d]pyrimidin-4-amine], the “Src % Inhibition” value in series [2] came to 87.87%. As to `Nc1ncnc2c1c(Cc1cc(F)cc(F)c1)nn2CC1CCNCC1` [MLC468, 3-(3,5-difluorobenzyl)-1-(piperidin-4-ylmethyl)-1H-pyrazolo[3,4-d]pyrimidin-4-amine], the “Src % Inhibition” value in series [2] was found to be 94.97%. With `Nc1ncnc2c1c(Oc1ccc(F)c(Cl)c1)nn2CC1CCNCC1` [GXJ261, 3-(3-chloro-4-fluorophenoxy)-1-(piperidin-4-ylmethyl)-1H-pyrazolo[3,4-d]pyrimidin-4-amine], the “Src % Inhibition” value in series [2] turned out to be 78.16%.

On to `CC(C)(C)n1nc(Cc2cc(F)cc(F)c2)c2c(N)ncnc21` [CZ75, 1-(tert-butyl)-3-(3,5-difluorobenzyl)-1H-pyrazolo[3,4-d]pyrimidin-4-amine], for which the “Src % Inhibition” value in series [2] was 91.31%. Regarding `Cc1cccc(Sc2nn(C(C)(C)C)c3ncnc(N)c23)c1` [FUR7-68, 1-(tert-butyl)-3-(m-tolylthio)-1H-pyrazolo[3,4-d]pyrimidin-4-amine], in series [1], the half-life was 1 min. For the same compound, in series [2], the 50% inhibitory concentration (IC50) is > 10000 nM and the “Src % Inhibition” value amounted to 64.39%. Besides, in series [3], the half-maximal inhibitory concentration (IC50) came out at 22.9 nM. Moreover, in series [4] (setting [6]), the EC50 was found to be 376 nM. Consider `CC(C)(C)n1nc(Nc2cccc(Cl)c2)c2c(N)ncnc21` [LZH118, 1-(tert-butyl)-N^3-(3-chlorophenyl)-1H-pyrazolo[3,4-d]pyrimidine-3,4-diamine], for which the “Src % Inhibition” value in series [2] amounted to 21.86%. Still for that read-out and setting: the result for `Nc1ncnc2c1c(Oc1cccc(Cl)c1)nn2CC1CCNC1` (stereo not shown) [FUR6-13, 3-(3-chlorophenoxy)-1-(pyrrolidin-3-ylmethyl)-H-pyrazolo[3,4-d]pyrimidin-4-amine] reads 99.50%. Take `Nc1ncnc2c1c(Cc1c[nH]c3ccccc13)nn2CC1(C(F)(F)F)CC1` [WXT-2, 3-((1H-indol-3-yl)methyl)-1-((1-(trifluoromethyl)cyclopropyl)methyl)-1H-pyrazolo[3,4-d]pyrimidin-4-amine]: the half-life in series [1] is 4.7 min. Further, the IC50 is > 10000 nM in series [2] and 38.1 nM in series [3]. Besides, in series [2], the “Src % Inhibition” value amounted to 96.00%. Moreover, the EC50 in series [4] (Toxoplasma gondii, 72 h, read-out: Parasite Growth EC50) came out at 206 nM. As to `Nc1ncnc2c1c(Oc1cccc(Cl)c1)nn2CC1CCCNC1` (stereo not shown) [FUR6-11, 3-(3-chlorophenoxy)-1-(piperidin-3-ylmethyl)-1H-pyrazolo[3,4-d]pyrimidin-4-amine], in series [2], the “Src % Inhibition” value is given as 90.05%.

Turning to `Nc1ncnc2c1c(Cc1c[nH]c3ccccc13)nn2CC1CCNCC1` [FUR6-95, 3-((1H-indol-3-yl)methyl)-1-(piperidin-4-ylmethyl)-1H-pyrazolo[3,4-d]pyrimidin-4-amine], the half-life in series [1] was > 60 min. For the same compound, in series [2], the IC50 was > 10000 nM and the “Src % Inhibition” value stood at 92.70%. Also, the midpoint of inhibition in series [3], the IC50, lay at 23.9 nM. Further, the 50% effective concentration (EC50) in series [4] (setting [6]) was > 10000 nM.

In the case of `CC(C)(C)n1nc(Oc2cccc(Cl)c2)c2c(N)ncnc21` [GXJ184, 1-(tert-butyl)-3-(3-chlorophenoxy)-1H-pyrazolo[3,4-d]pyrimidin-4-amine], the “Src % Inhibition” value in series [2] is reported as 79.94%. Besides, in series [5], the “Co (initial conc.)” value amounted to 5471.09 ng/mL.
